Our source for the IC50 values is patent publication US11034685B2, “Aminopyridine derivatives as TAM family kinase inhibitors” (SignalChem Lifesciences Corporation, priority 2013, dated 2021).

Common to all, as to assay type: biochemical
Test [1] concerns the target T1, Recombinant human Tyro3 (455-end) (Homo sapiens, UniProt Q06418).
T1 construct: GST (N); made in house; host or cells: Sf9 insect cells (baculovirus)
T1 sequence (Q06418 455-890 limits assumed): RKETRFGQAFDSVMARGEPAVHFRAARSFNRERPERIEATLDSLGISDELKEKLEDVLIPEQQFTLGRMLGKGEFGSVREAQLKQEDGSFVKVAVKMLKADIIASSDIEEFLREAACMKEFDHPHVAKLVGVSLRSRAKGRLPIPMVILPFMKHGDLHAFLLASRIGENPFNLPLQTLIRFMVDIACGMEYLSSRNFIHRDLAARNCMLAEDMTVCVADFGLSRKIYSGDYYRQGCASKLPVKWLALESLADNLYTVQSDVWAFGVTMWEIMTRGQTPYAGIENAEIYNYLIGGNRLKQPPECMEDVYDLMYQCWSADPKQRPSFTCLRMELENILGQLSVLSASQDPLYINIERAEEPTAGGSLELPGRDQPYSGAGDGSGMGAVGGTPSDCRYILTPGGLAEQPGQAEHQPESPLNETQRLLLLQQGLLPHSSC
Put plainly: Kinase enzymatic activity assay ([33P]-ATP phosphate transfer), Tyro3. Conditions: inhibitory activity on Tyro3; class symbols. On the procedure: (§1) Preparation of Active Recombinant Kinase Proteins:
(§2) Recombinant human Tyro3 (455-end, the gene accession number NM_006293), human Axl (473-end, the gene accession number NM_021913) and human Mer (578-872, the gene accession number NM_006343) were independently expressed by baculovirus in Sf9 insect cells using an N-terminal GST tag. The recombinant proteins were stored at −70° C. in a medium containing 50 mM Tris-HCl, pH 7.5, 150 mM NaCl, 10 mM glutathione, 0.1 mM EDTA, 0.25 mM DTT, 0.1 mM PMSF and 25% glycerol. The recombinant proteins were aliquoted into smaller quantities after centrifugation to avoid repeated handling and multiple freeze/thaw cycles for the most favorable performance.
(§3) Preparation of Assay Reagents:
(§4) Kinase Assay Buffer: This buffer solution consisted of the following components: 25 mM MOPS, pH 7.2, 12.5 mM β-glycerol-phosphate, 25 mM MgCl2, 5 mM EGTA, 2 mM EDTA and DTT 0.25 mM which was added prior to use.
(§5) Kinase Dilution Buffer: Kinase Assay Buffer was diluted at a 1:4 ratio (5× dilution) with distilled water.
(§6) [^33P]-ATP assay cocktail: In a designated radioactive working area, a 250 μM [^33P]-ATP assay cocktail was prepared by the addition of the following components: 150 μL of 10 mM ATP stock solution, 100 μL [^33P]-ATP (1 mci/100 μL), 5.75 mL of kinase assay buffer. This solution was stored in 1 mL aliquots at −20 OC.
(§7) ATP stock solution (10 mM): The ATP stock solution was prepared by dissolving 55 mg of ATP in 10 mL of kinase assay buffer. It was stored in 200 μL aliquots at −20° C.
(§8) Active Kinase Stock Solution: The active recombinant kinase protein (0.1 μg/μL) was diluted with Kinase Dilution Buffer and the activity was assayed using a serial dilution method. The specific activity is expressed in nmoL/min/mg.
(§9) Substrates: poly(4:1 glu:tyr) is the substrate used for each kinase Tyro3, Axl and Mer: The peptide substrate was dissolved in water to give the final concentration of 1 mg/mL.
(§10) Test compound solution: Test compound was dissolved in DMSO to obtain a 10 mM solution. The assay solution was prepared by adding 5 μL of this solution to […] of 10% DMSO/water to obtain the final concentration of 50 μM.
(§11) The enzymatic activity of all three kinases was determined as follows. Using a 96-well plate, the wells were divided into three categories: Blank wells, […] and Test wells. In Test wells, 5 μL of the test compound solution and 5 μL of the substrate solution were added. In Control wells, 5 μL of 10% DMSO/water and 5 μL of the substrate solution were added. In Blank wells, 10 μL of 10% DMSO/water was added. To each well was added 10 μL of Active Kinase Stock Solution to make up the volume in each well to 20 μL. All test samples, controls and blanks were run in duplicate. The reaction was initiated by the addition of 5 μL of [^33P]-ATP assay cocktail, bringing the final volume up to 25 μL in every well. The mixture was incubated at room temperature for 30 minutes. The reaction was terminated by transferring 10 μL of the reaction mixture into a Millipore MultiScreen filter plate (cat. number MSPHN6B50). The filter plate was washed in a 1% phosphoric acid solution with constant gentle shaking for 15 minutes and this step was repeated once. After the plate was dried in air, scintillation fluid was added to each well and the radioactivity in each well in CPM was counted by a Microbeta TriLux. The corrected CPM in each test well was determined by subtracting the average value of Blank well values. Percentage of inhibition of the kinase enzymatic activity by the test compound was determined using the following formula: […]
(§12) The IC50 values were determined in a similar way following a serial dilution of the test compound. The percentage of inhibition at each concentration was calculated following the above formula. The IC50 was estimated from the curve of % Inhibition against Concentration in log unit using Prism 5, version 5.01.

For test [2], the target named is T2, human Axl (473-end) (Homo sapiens, UniProt P30530).
T2 construct: GST (N); made in house; host or cells: Sf9 insect cells (baculovirus)
T2 sequence (P30530 473-894 limits assumed): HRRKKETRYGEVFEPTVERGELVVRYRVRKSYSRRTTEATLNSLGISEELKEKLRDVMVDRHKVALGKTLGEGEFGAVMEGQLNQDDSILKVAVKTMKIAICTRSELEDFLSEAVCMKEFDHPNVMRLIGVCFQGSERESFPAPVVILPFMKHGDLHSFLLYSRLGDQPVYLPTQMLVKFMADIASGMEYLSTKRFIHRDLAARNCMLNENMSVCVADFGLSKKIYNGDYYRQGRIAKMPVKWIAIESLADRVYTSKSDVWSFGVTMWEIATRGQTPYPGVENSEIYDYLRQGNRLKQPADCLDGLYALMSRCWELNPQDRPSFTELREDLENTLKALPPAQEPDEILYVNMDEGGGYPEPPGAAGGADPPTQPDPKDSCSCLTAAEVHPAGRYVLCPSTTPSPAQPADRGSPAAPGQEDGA
Put plainly: Kinase enzymatic activity assay ([33P]-ATP phosphate transfer), Axl. Conditions: inhibitory activity on Axl; class symbols. As for the experimental part:
as §1, §2, §3, §4, §5, §6, §7, §8, §9, §10, §11, §12

For test [3], the target named is T3, human Mer (578-872) (Homo sapiens, UniProt Q12866).
T3 construct: GST (N); made in house; host or cells: Sf9 insect cells (baculovirus)
T3 sequence (Q12866 578-872): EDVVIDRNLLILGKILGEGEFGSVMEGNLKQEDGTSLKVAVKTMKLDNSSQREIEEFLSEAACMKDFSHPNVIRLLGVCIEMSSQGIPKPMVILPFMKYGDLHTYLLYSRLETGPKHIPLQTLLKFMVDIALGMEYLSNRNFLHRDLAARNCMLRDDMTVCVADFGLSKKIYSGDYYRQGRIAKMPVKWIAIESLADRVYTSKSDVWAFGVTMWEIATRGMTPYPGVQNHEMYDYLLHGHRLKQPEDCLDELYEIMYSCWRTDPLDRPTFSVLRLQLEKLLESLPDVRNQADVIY
Put plainly: Kinase enzymatic activity assay ([33P]-ATP phosphate transfer), Mer. The following applies: inhibitory activity on Mer; class symbols. On the procedure:
as §1, §2, §3, §4, §5, §6, §7, §8, §9, §10, §11, §12

Bounds are passed on as bounds.

`CC(C)(C)c1ccc(-c2nnc(-c3cc(-c4cnn(C5CCNCC5)c4)cnc3N)o2)cc1` [3-(5-(4-(tert-butyl)phenyl)-1,3,4-oxadiazol-2-yl)-5-(1-(piperidin-4-yl)-1H-pyrazol-4-yl)pyridin-2-amine]: the concentration for half-maximal inhibition (IC50) in test [1], in test [2] and in test [3] was less than 0.5 µM each time.
For the molecule `Nc1ncc(-c2cnn(C3CCOCC3)c2)cc1-c1ncc(-c2ccc(Cl)cc2)o1`, the IC50 in test [1], in test [2] and in test [3] was more than 10 µM in each case.
For `CC(C)(C)OC(=O)N1CCC(n2cc(-c3cnc(N)c(-c4nnc(-c5nc(C(F)(F)F)cs5)o4)c3)cn2)CC1` [tert-butyl 4-(4-(6-amino-5-(5-(4-(trifluoromethyl)-thiazol-2-yl)-1,3,4-oxadiazol-2-yl)pyridin-3-yl)-1H-pyrazol-1-yl)piperidine-1-carboxylate], the concentration for half-maximal inhibition (IC50) (in general, the concentration that inhibits the measured activity by half) in test [1] was 1 to 10 µM; in test [2], less than 0.5 µM; in test [3], more than 10 µM.
Consider `Nc1ncc(-c2cnn(C3CCOCC3)c2)cc1-c1nnc(-c2ccccc2)o1` [3-(5-phenyl-1,3,4-oxadiazol-2-yl)-5-(1-(tetrahydro-2H-pyran-4-yl)-1H-pyrazol-4-yl)pyridin-2-amine], for which the IC50 in test [1], in test [2] and in test [3] was less than 0.5 µM throughout.
In the case of `Nc1ncc(-c2cnn(C3CCNCC3)c2)cc1-c1nnc(-c2nccs2)o1` [5-(1-(piperidin-4-yl)-1H-pyrazol-4-yl)-3-(5-(thiazol-2-yl)-1,3,4-oxadiazol-2-yl)pyridin-2-amine], the 50% inhibitory concentration (IC50) in test [1], in test [2] and in test [3] was less than 0.5 µM in each case.
`CN1CCC(n2cc(-c3cnc(N)c(-c4cc(-c5ccccc5)on4)c3)cn2)CC1` [5-(1-(1-methylpiperidin-4-yl)-1H-pyrazol-4-yl)-3-(5-phenylisoxazol-3-yl)pyridin-2-amine]: the half-maximal inhibitory concentration (IC50) in test [1], in test [2] and in test [3] was less than 0.5 µM in each case.
Take `CC(C)(C)OC(=O)N1CCC(n2cc(-c3cnc(N)c(-c4nnc(-c5nccs5)o4)c3)cn2)CC1` [tert-butyl 4-(4-(6-amino-5-(5-(thiazol-2-yl)-1,3,4-oxadiazol-2-yl)pyridin-3-yl)-1H-pyrazol-1-yl)piperidine-1-carboxylate]: the half-maximal inhibitory concentration (IC50) lay in the range of 1 to 10 µM in test [1], 0.5 to 1 µM in test [2] and 1 to 10 µM in test [3].
As for `Nc1ncc(-c2cnn(C3CCOCC3)c2)cc1-c1nnc(-c2c(Cl)cccc2Cl)o1` [3-(5-(2,6-dichlorophenyl)-1,3,4-oxadiazol-2-yl)-5-(1-(tetrahydro-2H-pyran-4-yl)-1H-pyrazol-4-yl)pyridin-2-amine], the IC50 in test [1], in test [2] and in test [3] was less than 0.5 µM each time.
As to `Nc1ncc(-c2cnn(C3CCN(C(=O)Cc4ccccc4)CC3)c2)cc1-c1ncc(-c2ccc(Cl)cc2)o1` [1-(4-(4-(6-amino-5-(5-(4-chlorophenyl)oxazol-2-yl)pyridin-3-yl)-1H-pyrazol-1-yl)piperidin-1-yl)-2-phenylethanone], the IC50 in test [1] was less than 0.5 µM; in test [2], less than 0.5 µM; in test [3], 1 to 10 µM.
As for `Nc1ncc(-c2cnn(C3CCNCC3)c2)cc1-c1ncc(-c2ccccc2)o1` [3-(5-phenyloxazol-2-yl)-5-(1-(piperidin-4-yl)-1H-pyrazol-4-yl)pyridin-2-amine], the 50% inhibitory concentration (IC50) in test [1], in test [2] and in test [3] was less than 0.5 µM in each case.
On to `Nc1ncc(-c2cn[nH]c2)cc1-c1nc(-c2ccccc2)no1` [3-(3-phenyl-1,2,4-oxadiazol-5-yl)-5-(1H-pyrazol-4-yl)pyridin-2-amine], for which the 50% inhibitory concentration (IC50) in test [1] is 1 to 10 µM; in test [2], 0.5 to 1 µM; in test [3] it was 1 to 10 µM.
In the case of `Nc1ncc(-c2cnn(C3CCN(C(=O)c4ccccc4)CC3)c2)cc1-c1nc(-c2ccccc2)no1` [(4-(4-(6-amino-5-(3-phenyl-1,2,4-oxadiazol-5-yl)pyridin-3-yl)-1H-pyrazol-1-yl)piperidin-1-yl)(phenyl)methanone], the IC50 in test [1], in test [2] and in test [3] was 1 to 10 µM throughout.
For the molecule `Nc1ncc(-c2cnn(C3CCOCC3)c2)cc1-c1cc(-c2ccccc2)on1` [3-(5-phenylisoxazol-3-yl)-5-(1-(tetrahydro-2H-pyran-4-yl)-1H-pyrazol-4-yl)pyridin-2-amine], the IC50 was less than 0.5 µM in test [1], less than 0.5 µM in test [2] and 1 to 10 µM in test [3].
Regarding `Nc1ncc(-c2cnn(C3CCCCC3)c2)cc1-c1nnc(-c2ccccc2)o1` [5-(1-cyclohexyl-1H-pyrazol-4-yl)-3-(5-phenyl-1,3,4-oxadiazol-2-yl)pyridin-2-amine], the IC50 in test [1] is 1 to 10 µM; in test [2] it was 1 to 10 µM; in test [3] it was more than 10 µM.
On to `CC(C)(C)OC(=O)N1CCC(n2cc(-c3cnc(N)c(-c4nnc(-c5ccccn5)o4)c3)cn2)CC1` [tert-butyl 4-(4-(6-amino-5-(5-(pyridin-2-yl)-1,3,4-oxadiazol-2-yl)pyridin-3-yl)-1H-pyrazol-1-yl)piperidine-1-carboxylate], for which the IC50 in test [1] is 1 to 10 µM; in test [2] it was less than 0.5 µM; in test [3], 1 to 10 µM.
Turning to `Nc1ncc(-c2cnn(C3CCCCC3)c2)cc1-c1ncc(-c2ccccc2)o1` [5-(1-cyclohexyl-1H-pyrazol-4-yl)-3-(5-phenyloxazol-2-yl)pyridin-2-amine], the IC50 in test [1] is 1 to 10 µM; in test [2] it was 1 to 10 µM; in test [3], more than 10 µM.
